Test results: patent publication US11053241B2, “TYK2 inhibitors and uses thereof” (Nimbus Lakshmi, Inc., priority 2018, dated 2021)
pIC50, pKd: −log10 of the molar value.

Columns and labels:
[1] = target: human TYK2 (JH2domain-pseudokinase) (Homo sapiens (Human), UniProt P29597); test: TYK2 JH2 Domain Binding Assay (KINOMEscan); settings: 11-point 3-fold dilution, top concentration 30,000 nM, duplicate
Method in brief: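 Competition binding used an NFkB-DNA-tagged fusion of TYK2 JH2 (G556–D888) expressed in HEK293 extracts against an immobilised ligand, 1 h at room temperature. Bead-bound kinase was quantified by qPCR. Kd came from an 11-point 3-fold series with a 30,000 nM top concentration and 0.9% DMSO, Hill slope −1, run in duplicate.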

TYK2 kinase domain (JH1) = TYK2 kinase domain (JH1) (Homo sapiens (Human), UniProt P29597); test: TYK2 Radioactive Kinase Assay; format: biochemical; settings: compound at 10 μM; ATP at 10 μM; 120 min at room temp
Chain of TYK2 kinase domain (JH1) (P29597 897-1176): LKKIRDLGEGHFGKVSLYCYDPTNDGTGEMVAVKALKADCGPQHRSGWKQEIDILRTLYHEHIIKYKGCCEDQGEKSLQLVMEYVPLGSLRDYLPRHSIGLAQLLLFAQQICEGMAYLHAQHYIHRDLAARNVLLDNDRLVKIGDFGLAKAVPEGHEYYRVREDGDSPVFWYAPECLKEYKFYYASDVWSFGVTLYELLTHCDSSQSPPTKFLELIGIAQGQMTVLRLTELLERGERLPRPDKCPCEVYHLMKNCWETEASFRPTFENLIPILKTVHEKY
Method: (§1) Peptide substrate, [KKSRGDYMTMQIG], (20 μM) was prepared in reaction buffer (20 mM Hepes pH 7.5, 10 mM MgCl2, 1 mM EGTA, 0.02% Brij35, 0.02 mg/mL BSA, 0.1 mM […], 2 mM DTT, 1% DMSO). TYK2 (Invitrogen) kinase was added, followed by compounds in DMSO. ^33PATP was added to initiate the reaction in ATP at 10 μM. The kinase reaction was incubated for 120 min at room temp and reactions were spotted onto P81 ion exchange paper (Whatman #3698-915), and then washed extensively in 0.75% phosphoric acid, prior to reading the radioactivity counts. For JAK2 (Invitrogen) kinase assay the peptide substrate poly[Glu:Tyr](4:1), 0.2 mg/ml was used, in the reaction carried out the same as for TYK2.
(§2) The TYK2 and JAK2 radioactive kinase assay measures the percent inhibition at the TYK2 kinase domain (JH1) and the percent inhibition at the JAK2 kinase domain (JH1). Results of the assay are expressed as percent inhibition at 10 μM.

JAK2 kinase domain (JH1) = JAK2 kinase domain (JH1) (Homo sapiens (Human), UniProt O60674); test: JAK2 Radioactive Kinase Assay; format: biochemical; settings: compound at 10 μM; ATP at 10 μM; substrate poly[Glu:Tyr](4:1)
Chain of JAK2 kinase domain (JH1) (O60674 849-1124): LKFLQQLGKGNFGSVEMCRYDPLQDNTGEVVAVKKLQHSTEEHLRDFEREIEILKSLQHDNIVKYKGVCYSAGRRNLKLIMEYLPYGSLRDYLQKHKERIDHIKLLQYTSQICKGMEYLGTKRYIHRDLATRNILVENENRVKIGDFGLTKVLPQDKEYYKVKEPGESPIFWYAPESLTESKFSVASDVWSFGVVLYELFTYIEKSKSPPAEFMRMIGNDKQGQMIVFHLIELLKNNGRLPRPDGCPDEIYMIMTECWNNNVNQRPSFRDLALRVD
Method: as §1, §2

[2] = test system: IL-12 induced STAT4 phophorylation mediated by TYK2/JAK2 (heterodimeric complex); test: IL-12 Induced pSTAT4 in Human PBMC; format: cell-based; settings: 1.7 ng/mL IL-12 for 30 minutes, 1 hr compound preincubation
Method: (§3) Human PBMC were isolated from buffy coat and were stored frozen for assays as needed. Cells for assay were thawed and resuspended in complete media containing serum, then cells were diluted to 1.67 E6 cells/mL so that 120 μl per well is 200,000 cells. 15 μl of compound or DMSO was added to the well at the desired concentrations and incubated at 1 hr at 37 C. 15 μl of stimulus (final concentration of 1.7 ng/mL IL-12) was added for 30 minutes prior to pSTAT4 and total STAT4 analysis using cell lysates prepared and analyzed by MSD reagents as per manufacturer protocol. The final DMSO concentration of compound in the assay was 0.1%.
The IL-12 Induced pSTAT4 assay evaluates the inhibition of IL-12 induced STAT4 phophorylation mediated by TYK2/JAK2 (heterodimeric complex).

[3] = test system: GM-CSF induced STAT5 phopsphorylation mediated by the JAK2/JAK2 homodimeric complex; test: GM-CSF Induced pSTAT5 in Human PBMC; format: cell-based; settings: 20 min, GM-CSF 5 ng/mL for 20 minutes, read-out: PBMC_GMCSF_pSTAT5 IC50
Method: as §3
Cells were prepared for analysis as in the above procedure and 15 μl of GM-CSF (final concentration 5 ng/mL) was added for 20 minutes prior to pSTAT5 and total STAT5 analysis using cell lysates prepared and analyzed by MSD reagents as per manufacturer protocol. The final DMSO concentration of compound in the assay was 0.1%.
The GM-CSF Induced pSTAT5 assay is a JAK2 cellular selectivity assay which evaluates inhibition of GM-CSF induced STAT5 phopsphorylation mediated by the JAK2/JAK2 homodimeric complex.

Chain of human TYK2 (JH2domain-pseudokinase) (P29597 556-888): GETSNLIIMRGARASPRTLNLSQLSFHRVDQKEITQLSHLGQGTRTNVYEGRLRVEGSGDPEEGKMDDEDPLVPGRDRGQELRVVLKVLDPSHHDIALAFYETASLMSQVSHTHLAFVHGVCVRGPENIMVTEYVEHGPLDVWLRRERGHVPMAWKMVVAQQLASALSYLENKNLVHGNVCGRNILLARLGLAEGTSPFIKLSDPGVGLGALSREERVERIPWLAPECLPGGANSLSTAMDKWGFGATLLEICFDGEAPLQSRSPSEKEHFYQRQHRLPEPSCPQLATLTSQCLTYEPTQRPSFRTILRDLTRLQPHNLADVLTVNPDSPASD

pKd [1]	inhibition at 10 µM (TYK2 kinase domain (JH1)) [%]	inhibition at 10 µM (JAK2 kinase domain (JH1)) [%]	pIC50 [2]	pIC50 [3]	Structure (SMILES)
> 9.70	< 50	< 50	> 7.00	< 4.30	CNC(=O)c1cnc(NC(=O)C2CC2)c2[nH]c(-c3cccc(-c4ncn(C)n4)c3)cc12 [Compound I-2, 7-(cyclopropanecarboxamido)-N-methyl-2-(3-(1-methyl-1H-1,2,4-triazol-3-yl)phenyl)-1H-pyrrolo[2,3-c]pyridine-4-carboxamide]
> 9.70			> 7.00		CNC(=O)c1cnc(NC(=O)C2CC2)c2[nH]c(-c3ccc(C(=O)N4CCC4)cc3F)cc12 [Compound I-42, 2-(4-(azetidine-1-carbonyl)-2-fluorophenyl)-7-(cyclopropanecarboxamido)-N-methyl-1H-pyrrolo[2,3-c]pyridine-4-carboxamide]
> 9.70	< 50	< 50	> 7.00	< 4.30	CNC(=O)c1cnc(NC(=O)C2CC2)c2[nH]c(-c3cccc(-c4ncco4)c3F)cc12 [Compound I-23, 7-(cyclopropanecarboxamido)-2-(2-fluoro-3-(oxazol-2-yl)phenyl)-N-methyl-1H-pyrrolo[2,3-c]pyridine-4-carboxamide]
> 9.70			6.30 to 7.00		CNC(=O)c1cnc(NC(=O)C2CC2)c2[nH]c(-c3cccn(-c4ncc(C)s4)c3=O)cc12 [Compound I-54, 7-(cyclopropanecarboxamido)-N-methyl-2-(1-(5-methylthiazol-2-yl)-2-oxo-1,2-dihydropyridin-3-yl)-1H-pyrrolo[2,3-c]pyridine-4-carboxamide]
8.00 to 9.00	< 50	< 50			CNC(=O)c1cnc(NC(=O)C2CC2)c2[nH]c(-c3ccccc3C3(S(C)(=O)=O)CC3)cc12 [Compound I-5, 7-(cyclopropanecarboxamido)-N-methyl-2-(2-(1-(methylsulfonyl)cyclopropyl)phenyl)-1H-pyrrolo[2,3-c]pyridine-4-carboxamide]
9.00 to 9.70	< 50	< 50			CNC(=O)c1cnc(NC(=O)C2CC2)c2[nH]c(-c3cccc(-c4ncn(C)n4)n3)cc12 [Compound I-32, 7-(cyclopropanecarboxamido)-N-methyl-2-(6-(1-methyl-1H-1,2,4-triazol-3-yl)pyridin-2-yl)-1H-pyrrolo[2,3-c]pyridine-4-carboxamide]
8.00 to 9.00	< 50	< 50			CNC(=O)c1cnc(NC(=O)C2CC2)c2[nH]c(-c3cc(-c4ccn(C)n4)cnc3OC3CC3)cc12 [Compound I-38, 7-(cyclopropanecarboxamido)-2-(2-cyclopropoxy-5-(1-methyl-1H-pyrazol-3-yl)pyridin-3-yl)-N-methyl-1H-pyrrolo[2,3-c]pyridine-4-carboxamide]
> 9.70	< 50	< 50	> 7.00		CNC(=O)c1cnc(NC(=O)C2CC2)c2[nH]c(-c3ccc(C(=O)N4CCC4)cc3OC)cc12 [Compound I-24, 2-(4-(azetidine-1-carbonyl)-2-methoxyphenyl)-7-(cyclopropanecarboxamido)-N-methyl-1H-pyrrolo[2,3-c]pyridine-4-carboxamide]
> 9.70	< 50	< 50			CNC(=O)c1cnc(NC(=O)C2CC2)c2[nH]c(-c3ccc(C(=O)N4CCCC4)cc3OC)cc12 [Compound I-25, 7-(cyclopropanecarboxamido)-2-(2-methoxy-4-(pyrrolidine-1-carbonyl)phenyl)-N-methyl-1H-pyrrolo[2,3-c]pyridine-4-carboxamide]

The remaining lines, values behind:

Structure (SMILES)	pKd [1]	inhibition at 10 µM (TYK2 kinase domain (JH1)) [%]	inhibition at 10 µM (JAK2 kinase domain (JH1)) [%]	pIC50 [2]	pIC50 [3]
CNC(=O)c1cnc(NC(=O)C2CC2)c2[nH]c(-c3cccc(-c4cnn(C)c4)c3F)cc12 [Compound I-19, 7-(cyclopropanecarboxamido)-2-(2-fluoro-3-(1-methyl-1H-pyrazol-4-yl)phenyl)-N-methyl-1H-pyrrolo[2,3-c]pyridine-4-carboxamide]	> 9.70	< 50	< 50	> 7.00	< 6.52
CNC(=O)c1cnc(NC(=O)C2CC2)c2[nH]c(-c3cccc(-c4cn(C)cn4)c3F)cc12 [Compound I-48, 7-(cyclopropanecarboxamido)-2-(2-fluoro-3-(1-methyl-1H-imidazol-4-yl)phenyl)-N-methyl-1H-pyrrolo[2,3-c]pyridine-4-carboxamide]	> 9.70			> 7.00	
CNC(=O)c1cnc(NC(=O)C2CC2)c2[nH]c(-c3ccccc3)cc12 [Compound I-1, 7-(cyclopropanecarboxamido)-N-methyl-2-phenyl-1H-pyrrolo[2,3-c]pyridine-4-carboxamide]	8.00 to 9.00	< 50	< 50	6.00 to 6.30	< 4.30
CNC(=O)c1cnc(NC(=O)C2CC2)c2[nH]c(-c3ccccc3N3CCCS3(=O)=O)cc12 [Compound I-4, 7-(cyclopropanecarboxamido)-2-(2-(1,1-dioxidoisothiazolidin-2-yl)phenyl)-N-methyl-1H-pyrrolo[2,3-c]pyridine-4-carboxamide]	> 9.70	< 50	< 50	> 7.00	< 4.90
Cn1cnc(-c2cccc(-c3cc4c(C(N)=O)cnc(NC(=O)C5CC5)c4[nH]3)c2)n1 [Compound I-12, 7-(cyclopropanecarboxamido)-2-(3-(1-methyl-1H-1,2,4-triazol-3-yl)phenyl)-1H-pyrrolo[2,3-c]pyridine-4-carboxamide]	> 9.70	> 90	> 90	> 7.00	< 6.52
CNC(=O)c1cnc(NC(=O)C2CC2)c2[nH]c(-c3cccc(-c4nnn(C)n4)c3F)cc12 [Compound I-52, 7-(cyclopropanecarboxamido)-2-(2-fluoro-3-(2-methyl-2H-tetrazol-5-yl)phenyl)-N-methyl-1H-pyrrolo[2,3-c]pyridine-4-carboxamide]	> 9.70			> 7.00	
CNC(=O)c1cnc(NC(=O)C2CC2)c2[nH]c(-c3cccc(C4=NC(C)(C)CS4)c3)cc12 [Compound I-11, 7-(cyclopropanecarboxamido)-2-(3-(4,4-dimethyl-4,5-dihydrothiazol-2-yl)phenyl)-N-methyl-1H-pyrrolo[2,3-c]pyridine-4-carboxamide]	9.00 to 9.70	< 50	< 50		
CNC(=O)c1cnc(NC(=O)C2CC2)c2[nH]c(-c3cccc(-n4nccn4)c3)cc12 [Compound I-8, 2-(3-(2H-1,2,3-triazol-2-yl)phenyl)-7-(cyclopropanecarboxamido)-N-methyl-1H-pyrrolo[2,3-c]pyridine-4-carboxamide]	8.00 to 9.00	< 50	< 50		
